# Assay results from US10363239B2, “Method for inhibiting growth of cancer cells” (Pain Therapeutics, Inc., priority 2013, dated 2019).
# Tested on: mu opiate receptor (MOR)
# Assay: MOR agonist activity using [35S]GTPγS binding assay in striatal membranes
# Type: biochemical
# Conditions: Series B; 0.1 μM compound, relative to DAMGO
# How it was run: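 Striatal membranes (200 μg) were preincubated 5 min at 30 °C in HEPES pH 7.5 with 100 mM NaCl, 1 mM MgCl2 and 0.5 nM [35S]GTPγS, then 5 min more with 0.1–10 μM compound. Gαo was immunoprecipitated and bound radioactivity counted by scintillation.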
row,SMILES,% DAMGO (0.1 μM) [%]
1,COc1c2c(cc3c1C(CC(=O)Cc1ccc(Br)cc1)[N+](C)(C)CC3)OCO2 (stereo not drawn) [Compound B0011],95.7

# Same assay, conditions: Series B; 0.1 μM compound; [35S]GTPγS binding to Gαo, striatal membranes
row,SMILES,"MOR agonist activity, percent [35S]GTPγS binding at the stated compound concentration [%]"
1,COc1c2c(cc3c1C(CC(=O)Cc1ccc(Br)cc1)[N+](C)(C)CC3)OCO2 (stereo not drawn) [Compound B0011],158.6

# Same assay, conditions: Series B; 1 μM compound + 1 μM β-FNA
row,SMILES,"MOR agonist activity, percent [35S]GTPγS binding at the stated compound concentration [%]"
1,COc1c2c(cc3c1C(CC(=O)Cc1ccc(Br)cc1)[N+](C)(C)CC3)OCO2 (stereo not drawn) [Compound B0011],78.0

# Same assay, conditions: Series B; 1 μM compound + β-FNA, relative to DAMGO + BFNA
row,SMILES,% DAMGO + BFNA [%]
1,COc1c2c(cc3c1C(CC(=O)Cc1ccc(Br)cc1)[N+](C)(C)CC3)OCO2 (stereo not drawn) [Compound B0011],120.0

# Same assay, conditions: Series B; 1 μM compound, relative to DAMGO
row,SMILES,% DAMGO (1 μM) [%]
1,COc1c2c(cc3c1C(CC(=O)Cc1ccc(Br)cc1)[N+](C)(C)CC3)OCO2 (stereo not drawn) [Compound B0011],78.7

# Same assay, conditions: Series B; 1 μM compound; [35S]GTPγS binding to Gαo, striatal membranes
row,SMILES,"MOR agonist activity, percent [35S]GTPγS binding at the stated compound concentration [%]"
1,COc1c2c(cc3c1C(CC(=O)Cc1ccc(Br)cc1)[N+](C)(C)CC3)OCO2 (stereo not drawn) [Compound B0011],212.6

# Same assay, conditions: Series C-1; 0.1 μM compound, relative to DAMGO
row,SMILES,% DAMGO (0.1 μM) [%]
1,CC(=O)c1ccc(S(=O)(=O)N2CCC3(CC2)OCCN3S(=O)(=O)c2ccc(C(C)=O)cc2)cc1 [Compound C0011],126.8
2,O=S(=O)(c1ccc(Br)cc1)N1CCC2(CC1)OCCN2S(=O)(=O)c1ccc(Br)cc1 [Compound C0025],122.6

# Same assay, conditions: Series C-1; 0.1 μM compound; [35S]GTPγS binding to Gαo, striatal membranes
row,SMILES,Concentration of FLNA-Binding Compound as Agonist 0.1 μM [%]
1,CC(=O)c1ccc(S(=O)(=O)N2CCC3(CC2)OCCN3S(=O)(=O)c2ccc(C(C)=O)cc2)cc1 [Compound C0011],217.0
2,O=S(=O)(c1ccc(Br)cc1)N1CCC2(CC1)OCCN2S(=O)(=O)c1ccc(Br)cc1 [Compound C0025],235.7

# Same assay, conditions: Series C-1; 1 μM compound + 1 μM β-FNA
row,SMILES,Concentration of FLNA-Binding Compound as Agonist 1 μM + BFNA [%]
1,CC(=O)c1ccc(S(=O)(=O)N2CCC3(CC2)OCCN3S(=O)(=O)c2ccc(C(C)=O)cc2)cc1 [Compound C0011],19.0
2,O=S(=O)(c1ccc(Br)cc1)N1CCC2(CC1)OCCN2S(=O)(=O)c1ccc(Br)cc1 [Compound C0025],80.2

# Same assay, conditions: Series C-1; 1 μM compound + β-FNA, relative to DAMGO + BFNA
row,SMILES,% DAMGO + BFNA [%]
1,CC(=O)c1ccc(S(=O)(=O)N2CCC3(CC2)OCCN3S(=O)(=O)c2ccc(C(C)=O)cc2)cc1 [Compound C0011],36.5
2,O=S(=O)(c1ccc(Br)cc1)N1CCC2(CC1)OCCN2S(=O)(=O)c1ccc(Br)cc1 [Compound C0025],182.7

# Same assay, conditions: Series C-1; 1 μM compound, relative to DAMGO
row,SMILES,% DAMGO (1 μM) [%]
1,CC(=O)c1ccc(S(=O)(=O)N2CCC3(CC2)OCCN3S(=O)(=O)c2ccc(C(C)=O)cc2)cc1 [Compound C0011],114.3
2,O=S(=O)(c1ccc(Br)cc1)N1CCC2(CC1)OCCN2S(=O)(=O)c1ccc(Br)cc1 [Compound C0025],117.5

# Same assay, conditions: Series C-1; 1 μM compound; [35S]GTPγS binding to Gαo, striatal membranes
row,SMILES,Concentration of FLNA-Binding Compound as Agonist 1 μM [%]
1,CC(=O)c1ccc(S(=O)(=O)N2CCC3(CC2)OCCN3S(=O)(=O)c2ccc(C(C)=O)cc2)cc1 [Compound C0011],305.0
2,O=S(=O)(c1ccc(Br)cc1)N1CCC2(CC1)OCCN2S(=O)(=O)c1ccc(Br)cc1 [Compound C0025],320.7

# Same assay, conditions: Series C-2; 0.1 μM compound, relative to DAMGO
row,SMILES,% DAMGO (0.1 μM) [%]
1,CC(=O)c1ccc(S(=O)(=O)N2CCC3(CC2)OCCN3S(=O)(=O)c2ccc(C(C)=O)cc2)cc1 [Compound C0011],126.8

# Same assay, conditions: Series C-2; 0.1 μM compound; [35S]GTPγS binding to Gαo, striatal membranes
row,SMILES,"MOR agonist activity, percent [35S]GTPγS binding at the stated compound concentration [%]"
1,CC(=O)c1ccc(S(=O)(=O)N2CCC3(CC2)OCCN3S(=O)(=O)c2ccc(C(C)=O)cc2)cc1 [Compound C0011],217.0

# Same assay, conditions: Series C-2; 1 μM compound + 1 μM β-FNA
row,SMILES,"MOR agonist activity, percent [35S]GTPγS binding at the stated compound concentration [%]"
1,CC(=O)c1ccc(S(=O)(=O)N2CCC3(CC2)OCCN3S(=O)(=O)c2ccc(C(C)=O)cc2)cc1 [Compound C0011],19.0

# Same assay, conditions: Series C-2; 1 μM compound + β-FNA, relative to DAMGO + BFNA
row,SMILES,% DAMGO + BFNA [%]
1,CC(=O)c1ccc(S(=O)(=O)N2CCC3(CC2)OCCN3S(=O)(=O)c2ccc(C(C)=O)cc2)cc1 [Compound C0011],36.5

# Same assay, conditions: Series C-2; 1 μM compound, relative to DAMGO
row,SMILES,% DAMGO (1 μM) [%]
1,CC(=O)c1ccc(S(=O)(=O)N2CCC3(CC2)OCCN3S(=O)(=O)c2ccc(C(C)=O)cc2)cc1 [Compound C0011],114.3

# Same assay, conditions: Series C-2; 1 μM compound; [35S]GTPγS binding to Gαo, striatal membranes
row,SMILES,"MOR agonist activity, percent [35S]GTPγS binding at the stated compound concentration [%]"
1,CC(=O)c1ccc(S(=O)(=O)N2CCC3(CC2)OCCN3S(=O)(=O)c2ccc(C(C)=O)cc2)cc1 [Compound C0011],305.0

# Target: FLNA pentapeptide of SEQ ID NO: 1 (Bn-VAKGL) (Homo sapiens, UniProt P21333)
# Assay: FITC-NLX-based FLNA screening assay (inhibition of FITC-naloxone binding to Bn-VAKGL on streptavidin plates)
# Conditions: read-out: Percent Binding Inhibition, FLNA-binding compound 0.01 μM; 10 nM FITC-NLX
row,SMILES,inhibition at 0.01 µM [%]
1,CC(=O)c1ccc(S(=O)(=O)N2CCC3(CC2)OCCN3S(=O)(=O)c2ccc(C(C)=O)cc2)cc1 [Compound C0011],37.6
2,O=S(=O)(c1ccc(Br)cc1)N1CCC2(CC1)OCCN2S(=O)(=O)c1ccc(Br)cc1 [Compound C0025],37.2
3,COc1c2c(cc3c1C(CC(=O)Cc1ccc(Br)cc1)[N+](C)(C)CC3)OCO2 (stereo not drawn) [Compound B0011],40.9

# Same assay, conditions: read-out: Percent Binding Inhibition, FLNA-binding compound 0.1 μM; 10 nM FITC-NLX
row,SMILES,inhibition at 0.1 µM [%]
1,CC(=O)c1ccc(S(=O)(=O)N2CCC3(CC2)OCCN3S(=O)(=O)c2ccc(C(C)=O)cc2)cc1 [Compound C0011],41.4
2,O=S(=O)(c1ccc(Br)cc1)N1CCC2(CC1)OCCN2S(=O)(=O)c1ccc(Br)cc1 [Compound C0025],41.4
3,COc1c2c(cc3c1C(CC(=O)Cc1ccc(Br)cc1)[N+](C)(C)CC3)OCO2 (stereo not drawn) [Compound B0011],50.3

# Same assay, conditions: read-out: Percent Binding Inhibition, FLNA-binding compound 1 μM; 10 nM FITC-NLX
row,SMILES,inhibition at 1 µM [%]
1,CC(=O)c1ccc(S(=O)(=O)N2CCC3(CC2)OCCN3S(=O)(=O)c2ccc(C(C)=O)cc2)cc1 [Compound C0011],46
2,O=S(=O)(c1ccc(Br)cc1)N1CCC2(CC1)OCCN2S(=O)(=O)c1ccc(Br)cc1 [Compound C0025],45.1
3,COc1c2c(cc3c1C(CC(=O)Cc1ccc(Br)cc1)[N+](C)(C)CC3)OCO2 (stereo not drawn) [Compound B0011],55.8
